One data set has as its system E. coli ATCC25922. Kind of data set: Antibacterial activity assay (broth dilution MIC). The format is cell-based. Particulars: Escherichia coli, 37° C., 24 h, compounds 38, 44-45, 58-61, 63-64 with 0.05% Tween 80. As to the method:
(§1) Antibacterial activity assay. The antibacterial activities of all the compounds were determined according to a broth dilution method specified in Clinical and Laboratory Standards Institute (CLSI) guidelines. Bacterial cells were inoculated on a Mueller-Hinton agar (MHA) plate for overnight culture, and the concentration of the bacterial cells was adjusted to about 1×10^6 colony-forming units (CFU)/mL with phosphate buffered saline (PBS). First, a 1000 μg/mL stock solution (a final concentration of dimethyl sulfoxide (DMSO) was ≤2%) was prepared by dissolving a sample in DMSO/H2O. Then, the stock solution was diluted with Mueller-Hinton Broth (MHB) to an initial concentration of 100 μg/mL, and the sample solution (100 μL) was subjected to two-fold gradient dilution with MHB in a 96-well plate, to obtain 100 μg/mL to 0.78 μg/mL serial dilutions. Then, a bacterial suspension (100 μL) was added to each well of the 96-well plate and mixed with the test sample solution (100 μL). Among them, test systems for compounds 38, 44-45, 58-61 and 63-64 contained 0.05% of Tween 80. Finally, the 96-well plate was incubated at 37° C. for 24 hours. Absorbances at 600 nm at 0 and 24 h were measured. An minimum inhibitory concentration (MIC) value was defined as the lowest concentration where no visible bacterial growth occurred. All experiments were carried out in at least two duplicates, and biological repeatability could be achieved.
On the technique in general: Broth dilution looks for growth in wells or tubes with falling amounts of substance.

Data set [1] has as its system S. aureus ATCC29213. Kind of data set: Antibacterial activity assay (broth dilution MIC). Format: cell-based. Particulars: Staphylococcus aureus, 37° C., 24 h, compounds 38, 44-45, 58-61, 63-64 with 0.05% Tween 80. As to the method:
as §1

In another data set the test system is MRSA N315. Kind of data set: Antibacterial activity assay (broth dilution MIC). Format: cell-based, methicillin-resistant Staphylococcus aureus. The note with it: Staphylococcus aureus, 37° C., 24 h, compounds 38, 44-45, 58-61, 63-64 with 0.05% Tween 80. As to the method: as §1
The next data set relates to MRSA NCTC10442. Kind of data set: Antibacterial activity assay (broth dilution MIC). The format is cell-based, methicillin-resistant Staphylococcus aureus. The note with it: Staphylococcus aureus, 37° C., 24 h, compounds 38, 44-45, 58-61, 63-64 with 0.05% Tween 80. As to the method:
as §1

The next data set deals with Gram-positive bacteria. Kind of data set: Antibacterial activity against Gram-positive bacteria (MIC summary). The format is cell-based. The note with it: 24 h; summary of tables 1 and 2; read-out: minimum inhibitory concentration (MIC) against Gram-positive bacteria. As to the method:
as §1

For data set [2], the system named is mouse fibroblasts NCTC clone 929. The experiment in a line: Toxicity to mammalian cells (CCK-8). Format: cell-based. Particulars: 100 μg/mL, 24 h, CCK-8. As to the method:
Assay of toxicity to mammalian cells. The cytotoxicities of a compound to be tested to mouse fibroblasts NCTC clone 929, mouse corneal cells CM120 and human hepatocellular carcinoma cells Hep-G2 were evaluated by a CCK-8 method. Cells were inoculated to a 96-well plate according to the cell amount described in a CCK-8 kit (Beyotime, PRC) specification, and cultured at 37° C. with 5% CO2 for 24 h. Then, a specific concentration of the sample to be tested was added to each well. Inoculation was further performed at 37° C. in an incubator for 24 h. Finally, a CCK-8 solution having a final concentration of 10% was added to each well. Incubation was further performed in the incubator for 1.0 h before absorbance at 450 nm (OD450) of the solution was measured by a microplate reader. According to formula (2), the cytotoxicity of the sample to be tested could be obtained:
[formula] • Asample: absorbance of a well with cells, a CCK8 solution and a sample solution to be tested; • Ablank: absorbance of a well with a culture medium and a CCK8 solution but without cells; and • Ano sample: absorbance of a well with cells and a CCK8 solution but without a sample solution to be tested.

Data set [3] has as its system S. aureus ATCC29213. Kind of data set: Mouse model of bacterial peritonitis (abdominal infection). Particulars: 58 5 mg/kg intravenously every 4 hours; vancomycin 20 mg/kg IP; 5 mice per group. The format is in vivo. As to the method: CD-1 mice (6-8 weeks, with an average weight of 25 g) were used as an abdominal infection model. First, the mice were injected with S. aureus ATCC29213 (OD600≈1.0) intraperitoneally, and the mice were randomized into three groups (5 mice per group). After 1 hour of infection, one group was dosed with 58 (5 mg/kg) intravenously for treatment, once every 4 hours; and meanwhile, one group dosed with vancomycin (20 mg/kg, IP) was used as a positive control group, and the other group dosed with a 0.9% sodium chloride injection was used as a blank control group. After two days of treatment, the survival rate of the mice was investigated.

A short description of data set [4]: Pharmacokinetic characteristics in mice. Format: in vivo.
The test system of data set [5] is S. aureus ATCC29213. Kind of data set: Mouse model of bacterial keratitis (cornea infection). Format: in vivo. Particulars: topical four times a day for three days; 0.5% compound 60, 5% vancomycin; P<0.01. As to the method:
Evaluation of in vivo efficacy. The experiment for evaluating in vivo antibacterial efficacy of animals had been approved by the Laboratory Animal Center of South China Agricultural University and was carried out according to the policy of the Ministry of Health of the People's Republic of China. Female C57BL6 mice (6-8 weeks, with an average weight of 20 g) were used as a bacterial keratitis model. In order to establish an immunosuppressive mouse model, cyclophosphamide (100 mg/kg) was injected intraperitoneally to mice three times 5 days before infection. Bacterial cells (S. aureus ATCC 29213) inoculated onto a Mueller Hinton agar (MHA) plate were suspended with PBS, and the concentration of the bacterial cells was adjusted to about 5×10^7 CFU/mL for corneal infection in mice. First, the mice were anesthetized. Then, the cornea of the left eye of the mouse was scratched with a sterile needle, and 15 μL of bacterial suspension was dropped on the injured cornea. One day after infection, the mice were randomized into three groups (5 mice per group). Three compounds (0.5% 60, 5% glucose solution and 5% vancomycin) were applied topically four times a day for consecutive three days, respectively. […] Viable bacteria were counted by an MHA plate counting method. the P value was calculated using SPSS 22.0 software and P≤0.05 was considered as being statistically significant.

Converted amounts (≈) assume the structure as drawn.

Take `C=C[C@](C)(/C=C/c1ccc(OCC(=O)N[C@@H](CCCNC(=N)N)C(=O)N[C@@H](CCCNC(=N)N)C(=O)N[C@@H](CCCNC(=N)N)C(N)=O)cc1)CCC=C(C)C` [Compound 58]: the MIC against E. coli ATCC25922 was 12.5 µg/mL (≈ 16 µM); against S. aureus ATCC29213 [1], 0.39 µg/mL (≈ 0.499 µM); against MRSA N315 it was 0.39 µg/mL (≈ 0.499 µM); in the data set on MRSA NCTC10442 it was 0.39 µg/mL (≈ 0.499 µM); in the data set with Gram-positive bacteria, 0.39 to 3.12 µg/mL (≈ 0.499 to 4 µM). For the same compound, the “cell survival rate, mouse fibroblasts NCTC clone 929” value in data set [2] is recorded as 89.3±0.600. Also, the “survival rate of mice after two days of treatment” value with S. aureus ATCC29213 [3] is 100%. In [4], the “pharmacokinetic characteristics in mice” value is given as “excellent pharmacokinetic characteristics”.

Turning to `CN[C@H](CC(C)C)C(=O)N[C@H]1C(=O)N[C@@H](CC(N)=O)C(=O)N[C@H]2C(=O)N[C@H]3C(=O)N[C@H](C(=O)N[C@H](C(=O)O)c4cc(O)cc(O)c4-c4cc3ccc4O)[C@H](O)c3ccc(c(Cl)c3)Oc3cc2cc(c3O[C@@H]2O[C@H](CO)[C@@H](O)[C@H](O)[C@H]2O[C@H]2C[C@](C)(N)[C@H](O)[C@H](C)O2)Oc2ccc(cc2Cl)[C@H]1O` [vancomycin, reference compound], the “reduction of the number of bacteria in the infected mouse cornea” value with S. aureus ATCC29213 [5] is 4.16 log. For the same compound, the “survival rate of mice after two days of treatment” value in the data set with S. aureus ATCC29213 [3] turned out to be 100%.
